For the assay, the target named is Substance-P receptor (Homo sapiens, UniProt P25103). Kind of assay: Displacement of [125]Substance P Binding from human Neurokinin NK1 receptor in CHO Cells.
Substance-P receptor, sequence (P25103 whole entry): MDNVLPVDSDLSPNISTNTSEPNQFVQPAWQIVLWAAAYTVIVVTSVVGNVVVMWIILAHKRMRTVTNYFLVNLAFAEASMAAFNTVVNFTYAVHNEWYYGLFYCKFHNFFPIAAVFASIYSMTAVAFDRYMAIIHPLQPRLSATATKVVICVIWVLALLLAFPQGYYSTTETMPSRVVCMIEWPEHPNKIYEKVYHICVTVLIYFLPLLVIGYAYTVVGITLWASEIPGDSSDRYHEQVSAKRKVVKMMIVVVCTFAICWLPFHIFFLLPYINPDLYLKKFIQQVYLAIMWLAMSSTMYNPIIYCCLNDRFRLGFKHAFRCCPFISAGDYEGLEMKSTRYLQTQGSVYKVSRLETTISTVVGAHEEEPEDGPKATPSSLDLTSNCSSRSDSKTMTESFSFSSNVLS

On to `O=C(Nc1ccccc1)N[C@H]1C2CCN(CC2)[C@H]1C(c1ccccc1)c1ccccc1`, for which the half-maximal inhibitory concentration (IC50) is over 1000 nM.
Consider `Cc1cc(C)cc(CO[C@H]2C3CCN(CC3)[C@H]2C(c2ccccc2)c2ccccc2)c1` [L-706125], for which the half-inhibitory concentration (IC50) worked out at 1 nM.
As to `Cc1ccc(C)c(CO[C@H]2C3CCN(CC3)[C@H]2C(c2ccccc2)c2ccccc2)c1`, the IC50 is 48 nM.
With `O=C(N[C@H]1C2CCN(CC2)[C@H]1C(c1ccccc1)c1ccccc1)Oc1ccccc1`, the IC50 is over 1000 nM.
As for `Cc1cccc(CO[C@H]2C3CCN(CC3)[C@H]2C(c2ccccc2)c2ccccc2)c1`, the figure is 21 nM; as for `O=C(N[C@H]1C2CCN(CC2)[C@H]1C(c1ccccc1)c1ccccc1)c1ccccc1`, over 1000 nM.
In turn, `Cc1ccc(CO[C@H]2C3CCN(CC3)[C@H]2C(c2ccccc2)c2ccccc2)cc1` yielded an IC50 of 290 nM.
Consider `c1ccc(CCN[C@H]2C3CCN(CC3)[C@H]2C(c2ccccc2)c2ccccc2)cc1`, for which the 50% inhibitory concentration (IC50) came out at 700 nM.
As for `Cc1ccc(CO[C@H]2C3CCN(CC3)[C@H]2C(c2ccccc2)c2ccccc2)cc1C`, the figure is 197 nM; as for `O=S(=O)(N[C@H]1C2CCN(CC2)[C@H]1C(c1ccccc1)c1ccccc1)c1ccccc1`, over 1000 nM; as for `O=C(Nc1ccccc1)O[C@H]1C2CCN(CC2)[C@H]1C(c1ccccc1)c1ccccc1`, over 1000 nM.
As for `c1ccc(CN[C@H]2C3CCN(CC3)[C@H]2C(c2ccccc2)c2ccccc2)cc1`, the figure is 150 nM; as for `Cc1ccccc1CO[C@H]1C2CCN(CC2)[C@H]1C(c1ccccc1)c1ccccc1`, 183 nM; as for `S=C(Nc1ccccc1)N[C@H]1C2CCN(CC2)[C@H]1C(c1ccccc1)c1ccccc1`, over 1000 nM.
As for `c1ccc(CO[C@H]2C3CCN(CC3)[C@H]2C(c2ccccc2)c2ccccc2)cc1`, the figure is 110000 nM.

Values taken from ChEMBL document CHEMBL1126513, “Quinuclidine-based NK-1 antagonists I: 3-benzyloxy-1-azabicyclo[2.2.2]octanes” (Bioorg Med Chem Lett, 1993).
